The record followed here is patent publication US9290451B2 (Hoffmann-La Roche Inc., priority 2011, dated 2016).

In one test the target is human CB1 receptors (Homo sapiens (Human), UniProt P21554). The test can be described thus: cAMP assay, CHO cells expressing human CB1 receptors. Format: cell-based. Particulars: CHO cells expressing human CB1, cAMP; read-out: human CB1 EC50. The essentials:
(§1)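 CHO cells, KRB buffer + 1 mM IBMX, 30 min 30 °C preincubation; compound 30 min 30 °C; lysis + TR-FRET cAMP detection, 2 h RT; cAMP from standard curve (10 μM–0.13 nM); EC50.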
A general note: Changes in cAMP serve as a functional read-out for many G protein-coupled receptors.

In a further test the target is human CB2 receptors (Homo sapiens (Human), UniProt P34972). The test can be described thus: cAMP assay, CHO cells expressing human CB2 receptors. Format: cell-based. The following applies: CHO cells expressing human CB2, cAMP; read-out: human CB2 EC50. The method, boiled down: as §1

A value given as a limit tells only on which side of the number the result lay.

human CB1 receptors, sequence (P21554 whole entry): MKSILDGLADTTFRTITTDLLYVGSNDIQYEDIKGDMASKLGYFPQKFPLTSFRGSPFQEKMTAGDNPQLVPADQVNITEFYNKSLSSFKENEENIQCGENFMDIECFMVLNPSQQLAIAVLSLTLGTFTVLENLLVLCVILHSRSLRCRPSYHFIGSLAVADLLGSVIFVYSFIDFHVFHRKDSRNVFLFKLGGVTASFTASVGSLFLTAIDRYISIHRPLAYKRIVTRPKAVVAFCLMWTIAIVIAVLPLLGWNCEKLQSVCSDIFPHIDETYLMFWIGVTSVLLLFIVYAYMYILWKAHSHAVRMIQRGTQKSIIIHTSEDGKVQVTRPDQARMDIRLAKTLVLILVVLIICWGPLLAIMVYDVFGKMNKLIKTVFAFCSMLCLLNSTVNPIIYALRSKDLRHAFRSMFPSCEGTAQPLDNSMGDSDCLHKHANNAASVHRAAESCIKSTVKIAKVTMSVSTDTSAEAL
human CB2 receptors, sequence (P34972 whole entry): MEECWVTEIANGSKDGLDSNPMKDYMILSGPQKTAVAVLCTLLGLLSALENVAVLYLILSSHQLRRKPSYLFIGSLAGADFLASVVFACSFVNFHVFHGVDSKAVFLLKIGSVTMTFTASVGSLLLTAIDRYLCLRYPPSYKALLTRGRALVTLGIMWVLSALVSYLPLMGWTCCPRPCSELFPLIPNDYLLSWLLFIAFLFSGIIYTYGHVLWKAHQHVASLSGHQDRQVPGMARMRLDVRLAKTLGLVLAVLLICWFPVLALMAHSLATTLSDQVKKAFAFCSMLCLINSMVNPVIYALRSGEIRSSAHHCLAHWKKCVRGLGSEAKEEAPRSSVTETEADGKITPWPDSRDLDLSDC

For `O=C(NC(c1ccccn1)C(F)(F)F)c1ccc(N2CC(F)(F)C2)c(OCC2CC2)n1` (stereo not shown) [Example 224, 6-Cyclopropylmethoxy-5-(3,3-difluoro-azetidin-1-yl)-pyridine-2-carboxylic acid (2,2,2-trifluoro-1-pyridin-2-yl-ethyl)-amide], the EC50 amounted to 648 nM at human CB1 receptors and 22.2 nM at human CB2 receptors.
For `CNC(=O)[C@@H](NC(=O)c1ccc(C2CC2)c(OCC2CC2)n1)c1ccccc1` [Example 225, 5-Cyclopropyl-6-cyclopropylmethoxy-pyridine-2-carboxylic acid ((−)-methylcarbamoyl-phenyl-methyl)-amide] the same measures were over 10000 nM and 48.4 nM.
The corresponding values for `CN(C)C(=O)[C@@H](NC(=O)c1ccc(C2CC2)c(OCC2CC2)n1)c1ccccc1` [Example 226, 5-Cyclopropyl-6-cyclopropylmethoxy-pyridine-2-carboxylic acid ((+)-dimethylcarbamoyl-phenyl-methyl)-amide] are over 10000 nM and 19.9 nM.
Regarding `CN(C)C(=O)[C@H](NC(=O)c1ccc(C2CC2)c(OCC2CC2)n1)c1ccccc1` [Example 227, 5-Cyclopropyl-6-cyclopropylmethoxy-pyridine-2-carboxylic acid ((−)-dimethylcarbamoyl-phenyl-methyl)-amide], the EC50 was over 10000 nM on human CB1 receptors and 40.8 nM at human CB2 receptors.
Consider `CNC(=O)[C@H](CC(C)(C)C)NC(=O)c1ccc(C(F)(F)F)c(OCC2CC2)n1` [Example 228, 6-Cyclopropylmethoxy-5-trifluoromethyl-pyridine-2-carboxylic acid ((S)-3,3-dimethyl-1-methylcarbamoyl-butyl)-amide], for which the EC50 on human CB1 receptors was over 10000 nM; on human CB2 receptors, 16.8 nM.
For `Cc1nc(C(NC(=O)c2ccc(C(F)(F)F)c(OCC3CC3)n2)C2CC2)no1` (stereo not shown) [Example 229, 6-Cyclopropylmethoxy-5-trifluoromethyl-pyridine-2-carboxylic acid [cyclopropyl-(5-methyl-[1,2,4]oxadiazol-3-yl)-methyl]-amide] the same measures were over 10000 nM and 52.4 nM.
The corresponding values for `CNC(=O)[C@H](CC(C)(C)C)NC(=O)c1ccc(C(F)(F)F)c(OCC2CCOCC2)n1` [Example 230, 6-(Tetrahydro-pyran-4-ylmethoxy)-5-trifluoromethyl-pyridine-2-carboxylic acid ((S)-3,3-dimethyl-1-methylcarbamoyl-butyl)-amide] are 1590 nM and 29.4 nM.
For the compound `CC(C)C[C@H](NC(=O)c1ccc(C2CC2)c(OCC2CC2)n1)C(=O)N(C)C` [Example 231, 5-Cyclopropyl-6-cyclopropylmethoxy-pyridine-2-carboxylic acid ((S)-1-dimethylcarbamoyl-3-methyl-butyl)-amide], the EC50 on human CB1 receptors came out at 678 nM; on human CB2 receptors, 1.4 nM.
Take `CCC(CC)(NC(=O)c1ccc(C2CC2)c(OCC2CCCO2)n1)C(=O)OC` (stereo not shown) [Example 233, 2-{[5-Cyclopropyl-6-(tetrahydro-furan-2-ylmethoxy)-pyridine-2-carbonyl]-amino}-2-ethyl-butyric acid methyl ester]: the EC50 at human CB1 receptors was 71 nM; at human CB2 receptors, 0.1 nM.
With `CNC(=O)[C@H](CC(C)(C)C)NC(=O)c1ccc(N2CCC23COC3)c(OCC2CC2)n1` [Example 234, 6-Cyclopropylmethoxy-5-(6-oxa-1-aza-spiro[3.3]hept-1-yl)-pyridine-2-carboxylic acid ((S)-3,3-dimethyl-1-methylcarbamoyl-butyl)-amide], the EC50 at human CB1 receptors was over 10000 nM; at human CB2 receptors, 8.3 nM.
The corresponding values for `Cc1nc(C(C)(C)NC(=O)c2ccc(N3CCC34COC4)c(OCC3CC3)n2)no1` [Example 235, 6-Cyclopropylmethoxy-5-(6-oxa-1-aza-spiro[3.3]hept-1-yl)-pyridine-2-carboxylic acid [1-methyl-1-(5-methyl-[1,2,4]oxadiazol-3-yl)-ethyl]-amide] are over 10000 nM and 41.3 nM.

In general, EC50 refers to the midpoint of the concentration-response curve.
